{"source": "patent US20250313556A1", "about": "“CERTAIN CHEMICAL ENTITIES, COMPOSITIONS, AND METHODS” (MRJA THERAPEUTICS, INC., priority 2022, published 2025)", "data": [{"molecular_target": "c-KIT (Homo sapiens, UniProt P10721)", "sequence (P10721 26-976)": "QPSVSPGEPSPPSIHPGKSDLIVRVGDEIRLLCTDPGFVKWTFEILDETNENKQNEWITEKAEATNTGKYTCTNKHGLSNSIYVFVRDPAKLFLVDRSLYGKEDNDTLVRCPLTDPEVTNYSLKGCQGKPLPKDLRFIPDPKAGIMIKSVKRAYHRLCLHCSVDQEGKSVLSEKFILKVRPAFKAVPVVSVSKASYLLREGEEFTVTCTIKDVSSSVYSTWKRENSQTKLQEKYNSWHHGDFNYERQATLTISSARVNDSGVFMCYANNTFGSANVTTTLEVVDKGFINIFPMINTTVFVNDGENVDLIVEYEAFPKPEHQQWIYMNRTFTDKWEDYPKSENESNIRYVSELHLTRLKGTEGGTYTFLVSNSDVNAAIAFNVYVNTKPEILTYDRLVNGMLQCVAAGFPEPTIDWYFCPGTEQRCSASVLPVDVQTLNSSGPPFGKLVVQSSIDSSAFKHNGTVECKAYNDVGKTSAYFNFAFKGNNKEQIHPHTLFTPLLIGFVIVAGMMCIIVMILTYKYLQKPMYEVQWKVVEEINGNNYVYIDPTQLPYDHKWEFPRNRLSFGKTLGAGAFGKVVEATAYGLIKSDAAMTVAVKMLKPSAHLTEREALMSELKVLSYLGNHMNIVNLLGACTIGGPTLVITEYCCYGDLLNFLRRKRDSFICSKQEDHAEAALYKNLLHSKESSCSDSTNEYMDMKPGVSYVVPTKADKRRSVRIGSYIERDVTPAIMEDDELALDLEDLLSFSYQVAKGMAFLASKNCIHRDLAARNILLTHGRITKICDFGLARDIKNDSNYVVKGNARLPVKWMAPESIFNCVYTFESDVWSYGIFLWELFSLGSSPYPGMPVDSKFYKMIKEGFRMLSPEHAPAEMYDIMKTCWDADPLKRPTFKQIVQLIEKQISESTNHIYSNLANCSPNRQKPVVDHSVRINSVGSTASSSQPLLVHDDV", "experiment": "c-KIT ADP-Glo biochemical assay", "settings": "class ranges", "protocol": "(§1) The inhibitory activity against c-KIT was measured using ADP-Glo assay. The percent (%) inhibition at each concentration of compound is calculated based on and relative to the luminescence signal in the Max and Min control wells contained within each assay plate. The Max control wells contain enzyme and substrate as 0% inhibition, and the Min control wells only contain substrate without enzyme as 100% inhibition. The concentrations and % inhibition values for tested compounds are plotted and the concentration of compound required for 50% inhibition (IC50) is determined with a four-parameter logistic dose response equation. The ability of the compounds in Table 1 to inhibit c-KIT was determined.", "units": {"IC50": "µM"}, "values": [{"smiles": "Cc1c(F)cc(-c2noc(C3CC(F)(F)C3)n2)cc1NC(=O)c1cnc2cc(N3CCNCC3)ccn12", "note": "[Compound C010, N-(5-(5-(3,3-difluorocyclobutyl)-1,2,4-oxadiazol-3-yl)-3-fluoro-2-methylphenyl)-7-(piperazin-1-yl)imidazo[1,2-a]pyridine-3-carboxamide]", "IC50": "0.1 to 1"}, {"smiles": "COC(=O)N1CC(c2nc(-c3cc(F)c(C)c(NC(=O)c4cnc5ccc(N6CCNCC6)cn45)c3)no2)C1", "note": "[Compound C020, methyl 3-(3-(3-fluoro-4-methyl-5-(6-(piperazin-1-yl)imidazo[1,2-a]pyridine-3-carboxamido)phenyl)-1,2,4-oxadiazol-5-yl)azetidine-1-carboxylate]", "IC50": "1 to 20"}, {"smiles": "COC(=O)N1CC(c2nc(-c3cc(F)c(C)c(NC(=O)c4cnc5ccc(N6CCN(C)CC6)cn45)c3)no2)C1", "note": "[Compound C028, methyl 3-(3-(3-fluoro-4-methyl-5-(6-(4-methylpiperazin-1-yl)imidazo[1,2-a]pyridine-3-carboxamido)phenyl)-1,2,4-oxadiazol-5-yl)azetidine-1-carboxylate]", "IC50": "0.1 to 1"}, {"smiles": "COC(=O)N1CC(c2nc(-c3cc(F)c(C)c(NC(=O)c4cnc5ccc(OC)cn45)c3)no2)C1", "note": "[Compound C027, methyl 3-(3-(3-fluoro-5-(6-methoxyimidazo[1,2-a]pyridine-3-carboxamido)-4-methylphenyl)-1,2,4-oxadiazol-5-yl)azetidine-1-carboxylate]", "IC50": "0.1 to 1"}, {"smiles": "Cc1c(F)cc(-c2noc([C@H]3C[C@@H]3F)n2)cc1NC(=O)c1cnc2cc(N3CCNCC3)ccn12", "note": "(racemic) [Compound C022, N-(3-fluoro-5-(5-((1R,2S)-2-fluorocyclopropyl)-1,2,4-oxadiazol-3-yl)-2-methylphenyl)-7-(piperazin-1-yl)imidazo[1,2-a]pyridine-3-carboxamide]", "IC50": "1 to 20"}, {"smiles": "Cc1c(F)cc(-c2noc(C3CC(F)(F)C3)n2)cc1NC(=O)c1cnc2cc(N3CCOCC3)ccn12", "note": "[Compound C013, N-(5-(5-(3,3-difluorocyclobutyl)-1,2,4-oxadiazol-3-yl)-3-fluoro-2-methylphenyl)-7-morpholinoimidazo[1,2-a]pyridine-3-carboxamide]", "IC50": "0.1 to 1"}, {"smiles": "Cc1c(F)cc(-c2noc([C@H]3C[C@@H]3F)n2)cc1NC(=O)c1cnc2ccccn12", "note": "(racemic) [Compound C002, N-(3-fluoro-5-(5-((1R,2S)-2-fluorocyclopropyl)-1,2,4-oxadiazol-3-yl)-2-methylphenyl)imidazo[1,2-a]pyridine-3-carboxamide]", "IC50": "1 to 20"}, {"smiles": "COC(=O)N1CC(c2nnc(-c3cc(F)c(C)c(NC(=O)c4cnc5ccccn45)c3)[nH]2)C1", "note": "[Compound C048, methyl 3-(5-(3-fluoro-5-(imidazo[1,2-a]pyridine-3-carboxamido)-4-methylphenyl)-4H-1,2,4-triazol-3-yl)azetidine-1-carboxylate]", "IC50": "0.1 to 1"}, {"smiles": "COC(=O)N1CC(c2nc(-c3cc(F)c(C)c(NC(=O)c4cnc5ccccn45)c3)co2)C1", "note": "[Compound C045, methyl 3-(4-(3-fluoro-5-(imidazo[1,2-a]pyridine-3-carboxamido)-4-methylphenyl)oxazol-2-yl)azetidine-1-carboxylate]", "IC50": "0.1 to 1"}, {"smiles": "COC(=O)N1CC(c2nc(-c3cc(F)c(C)c(NC(=O)c4cnc5ccccn45)c3F)no2)C1", "note": "[Compound C052, methyl 3-(3-(2,5-difluoro-3-(imidazo[1,2-a]pyridine-3-carboxamido)-4-methylphenyl)-1,2,4-oxadiazol-5-yl)azetidine-1-carboxylate]", "IC50": "≤ 0.1"}, {"smiles": "Cc1c(F)cc(-c2noc(C3CC(F)(F)C3)n2)cc1NC(=O)c1cnc2ccc(N3CCNCC3)cn12", "note": "[Compound C025, N-(5-(5-(3,3-difluorocyclobutyl)-1,2,4-oxadiazol-3-yl)-3-fluoro-2-methylphenyl)-6-(piperazin-1-yl)imidazo[1,2-a]pyridine-3-carboxamide]", "IC50": "0.1 to 1"}, {"smiles": "COC(=O)N1CC(c2cnc(-c3cc(F)c(C)c(NC(=O)c4cnc5ccccn45)c3)o2)C1", "note": "[Compound C051, methyl 3-(2-(3-fluoro-5-(imidazo[1,2-a]pyridine-3-carboxamido)-4-methylphenyl)oxazol-5-yl)azetidine-1-carboxylate]", "IC50": "1 to 20"}, {"smiles": "COC(=O)N1CC(c2nc(-c3cc(F)c(C)c(NC(=O)c4cnc5cc(C#N)ccn45)c3)no2)C1", "note": "[Compound C035, methyl 3-(3-(3-(7-cyanoimidazo[1,2-a]pyridine-3-carboxamido)-5-fluoro-4-methylphenyl)-1,2,4-oxadiazol-5-yl)azetidine-1-carboxylate]", "IC50": "1 to 20"}, {"smiles": "Cc1c(F)cc(-c2noc(C3CC(F)(F)C3)n2)cc1NC(=O)c1cnn2ccccc12", "note": "[Compound C004, N-(5-(5-(3,3-difluorocyclobutyl)-1,2,4-oxadiazol-3-yl)-3-fluoro-2-methylphenyl)pyrazolo[1,5-a]pyridine-3-carboxamide]", "IC50": "1 to 20"}, {"smiles": "Cc1c(F)cc(-c2noc(C3CN(C(=O)OCCN)C3)n2)cc1NC(=O)c1cnc2ccccn12", "note": "[Compound C041, 2-aminoethyl 3-(3-(3-fluoro-5-(imidazo[1,2-a]pyridine-3-carboxamido)-4-methylphenyl)-1,2,4-oxadiazol-5-yl)azetidine-1-carboxylate]", "IC50": "≤ 0.1"}, {"smiles": "COC(=O)N1CC(c2ncc(-c3cc(F)c(C)c(NC(=O)c4cnc5ccccn45)c3)o2)C1", "note": "[Compound C046, methyl 3-(5-(3-fluoro-5-(imidazo[1,2-a]pyridine-3-carboxamido)-4-methylphenyl)oxazol-2-yl)azetidine-1-carboxylate]", "IC50": "1 to 20"}, {"smiles": "COC(=O)N1CC(c2noc(-c3cc(F)c(C)c(NC(=O)c4cnc5ccccn45)c3)n2)C1", "note": "[Compound C037, methyl 3-(5-(3-fluoro-5-(imidazo[1,2-a]pyridine-3-carboxamido)-4-methylphenyl)-1,2,4-oxadiazol-3-yl)azetidine-1-carboxylate]", "IC50": "0.1 to 1"}, {"smiles": "COC(=O)N1CC(c2nc(-c3cc(F)c(C)c(NC(=O)c4cnc5ccc(Cl)cn45)c3)no2)C1", "note": "[Compound C012, methyl 3-(3-(3-(6-chloroimidazo[1,2-a]pyridine-3-carboxamido)-5-fluoro-4-methylphenyl)-1,2,4-oxadiazol-5-yl)azetidine-1-carboxylate]", "IC50": "0.1 to 1"}, {"smiles": "Cc1c(F)cc(-c2noc(C3CN(C(=O)OC4CC4)C3)n2)cc1NC(=O)c1cnc2ccccn12", "note": "[Compound C031, cyclopropyl 3-(3-(3-fluoro-5-(imidazo[1,2-a]pyridine-3-carboxamido)-4-methylphenyl)-1,2,4-oxadiazol-5-yl)azetidine-1-carboxylate]", "IC50": "1 to 20"}]}, {"molecular_target": "c-KIT (Homo sapiens, UniProt P10721)", "experiment": "c-KIT ADP-Glo biochemical assay", "settings": "comparison of prior art compounds (WO 2013/033167) with example 3 (C003)", "protocol": "as §1", "units": {"IC50": "µM"}, "values": [{"smiles": "COC(=O)N1CC(c2nc(-c3ccc(C)c(NC(=O)c4cnc5ccccn45)c3)no2)C1", "note": "[methyl 3-(3-(3-(imidazo[1,2-a]pyridine-3-carboxamido)-4-methylphenyl)-1,2,4-oxadiazol-5-yl)azetidine-1-carboxylate, reference compound]", "IC50": 0.172}, {"smiles": "COC(=O)N1CC(c2nc(-c3cc(NC(=O)c4cnc5ccccn45)c(C)cc3F)no2)C1", "note": "[methyl 3-(3-(2-fluoro-5-(imidazo[1,2-a]pyridine-3-carboxamido)-4-methylphenyl)-1,2,4-oxadiazol-5-yl)azetidine-1-carboxylate, reference compound]", "IC50": 4.95}]}]}
